The results in this text go back to ChEMBL document CHEMBL1124870, “2-(4-Amino-4-carboxybutyl)aziridine-2-carboxylic acid. A potent irreversible inhibitor of diaminopimelic acid epimerase. Spontaneous formation from alpha-(halomethyl)diaminopimelic acids” (J Med Chem, 1990).

Series [1] in a line: Rate of formation of aziridine under physiological conditions. Format: ADME.
Series [2] in a line: Dissociation constant value of the compound. The series is classed as physicochemical. The note with it: read-out: Ki/ki.
The subject of the next series is Escherichia coli. The series can be described thus: Concentration at which first-order inactivation was observed by the inhibition of Diaminopimelate epimerase.

Structures are written as SMILES.

Turning to `NC(CCCC(N)(CCl)C(=O)O)C(=O)O` (stereo unspecified), in series [1], the k0 was determined as 0.011 min⁻¹ and the kik0/Ki is 0.002 µM-1 min··-2.
On the same counts, the results for `NC(CCCC(N)(CF)C(=O)O)C(=O)O` (stereo unspecified) are 0.000079 min⁻¹ and 0.0000145 uM-1 min**-2.
As for `NC(CCCC1(C(=O)O)CN1)C(=O)O` (stereo unspecified), the Kd in series [2] turned out to be 5.5 µM. The molecule also returned a Concentration with Escherichia coli of 2 µM.
